System: human skin-derived fibroblasts
Test: Collagen quantification in fibroblasts after artificial sunlight irradiation through the wavelength conversion substance
Assay type: cell-based
Settings: artificial sunlight 80 minutes passed through substance (10% phosphor film or 1% aqueous solution, no cell contact); collagen measured 3 days after irradiation; UV-only control 14 μg collagen/well
Experimental: Preparation method: A film containing 10% Zinc Oxide phosphor, a film containing 10% magnesium titanate phosphor were used, and C-phycocyanin was dissolved in ultrapure water at a concentration of 1% and used as a solution. • Cells: human skin-derived fibroblasts • Collagen assay kit: Cosmo Bio Co., COL-001 • DNA-quantitation kit: Cosmo Bio Co., AK06 • Artificial Sunlight Irradiation System: Celick Corporation: XC-500BF
Human skin-derived fibroblasts cultured in 75 cm^2 flasks were treated with trypsin, and after harvesting the cells, the cells were seeded at a density of 2×10^5 cells/dish using medium on five 6-well plates according to the plate arrangement below. […]
After 3 days from illumination, culture supernatants were removed from wells for collagen quantitation in each treatment group and washed with PBS. Collagen in human fibroblast layers was extracted and measured according to the protocol of the collagen quantitation kit (https://search.cosmobio.co.jp/cosmo_searchp/search_gate2/docs/CSR_/COL001.20190327.pdf). In addition, the amount of DNA in samples after collagen extraction was determined for correction of collagen quantitative results according to the protocol of the Quantitative Kit of DNA (https://search.cosmobio.co.jp/cosmo)_search_p/search_gate2/docs/PMC_/AK06.20140507.pdf).

C-phycocyanin
collagen produced by UV-irradiated fibroblasts: 25 μg collagen/well

— patent US20230052667A1, “AGENT FOR MAINTAINING OR ENHANCING COLLAGEN PRODUCTION ABILITY” (Shiseido Company, Ltd., priority 2020, published 2023)
